Measured values reported in ChEMBL document CHEMBL2086385, “Synthesis and antimicrobial evaluation of L-phenylalanine-derived C5-substituted rhodanine and chalcone derivatives containing thiobarbituric acid or 2-thioxo-4-thiazolidinone” (2012).
In brackets after ≈: the same amount, converted by molar mass.

Legend:
Assay type in all cases: functional
[1] = system: Staphylococcus aureus; experiment: Antibacterial activity against Staphylococcus aureus KCTC 209 after 24 hrs by broth microdilution method; conditions: KCTC 209, 24 h
[2] = system: Staphylococcus aureus; experiment: Antibacterial activity against Staphylococcus aureus KCTC 503 after 24 hrs by broth microdilution method; conditions: KCTC 503, 24 h
[3] = system: Staphylococcus aureus; experiment: Antibacterial activity against Staphylococcus aureus RN4220 after 24 hrs by broth microdilution method; conditions: RN4220, 24 h
[4] = system: Escherichia coli; experiment: Antibacterial activity against Escherichia coli CCARM 1356 after 24 hrs by broth microdilution method; conditions: CCARM 1356, 24 h
[5] = system: Staphylococcus aureus; experiment: Antibacterial activity against methicillin-resistant Staphylococcus aureus CCARM 3167 clinical isolate after 24 hrs by broth microdilution method; conditions: CCARM 3167, 24 h
[6] = system: Staphylococcus aureus; experiment: Antibacterial activity against methicillin-resistant Staphylococcus aureus CCARM 3506 clinical isolate after 24 hrs by broth microdilution method; conditions: CCARM 3506, 24 h
[7] = system: Staphylococcus aureus; experiment: Antibacterial activity against quinolone-resistant Staphylococcus aureus CCARM 3505 clinical isolate after 24 hrs by broth microdilution method; conditions: CCARM 3505, 24 h
[8] = system: Staphylococcus aureus; experiment: Antibacterial activity against quinolone-resistant Staphylococcus aureus CCARM 3519 clinical isolate after 24 hrs by broth microdilution method; conditions: CCARM 3519, 24 h
[9] = system: Staphylococcus aureus; experiment: Ratio of norfloxacin MIC to compound MIC for methicillin-resistant Staphylococcus aureus CCARM 3167 clinical isolate
[10] = system: Staphylococcus aureus; experiment: Ratio of norfloxacin MIC to compound MIC for methicillin-resistant Staphylococcus aureus CCARM 3506 clinical isolate
[11] = system: Staphylococcus aureus; experiment: Ratio of norfloxacin MIC to compound MIC for quinolone-resistant Staphylococcus aureus CCARM 3505 clinical isolate
[12] = system: Staphylococcus aureus; experiment: Ratio of norfloxacin MIC to compound MIC for quinolone-resistant Staphylococcus aureus CCARM 3519 clinical isolate

Structure (SMILES) | MIC [1] [µg/mL] | MIC [2] [µg/mL] | MIC [3] [µg/mL] | MIC [4] [µg/mL] | MIC [5] [µg/mL] | MIC [6] [µg/mL] | MIC [7] [µg/mL] | MIC [8] [µg/mL] | Ratio [9] | Ratio [10] | Ratio [11] | Ratio [12]
O=C(/C=C/c1ccc(/C=C2\SC(=S)N([C@@H](Cc3ccccc3)C(=O)O)C2=O)cc1)c1ccc2ccccc2c1 | 8 (≈ 14.6 µM) | 8 (≈ 14.6 µM) | 2 (≈ 3.64 µM) | > 64 | 2 (≈ 3.64 µM) | 4 (≈ 7.28 µM) | 2 (≈ 3.64 µM) | 2 (≈ 3.64 µM) | 2 | 2 | 2 | 2
O=C(/C=C/c1ccc(/C=C2\SC(=S)N([C@@H](Cc3ccccc3)C(=O)O)C2=O)cc1)c1ccc(Br)cc1 | 4 (≈ 6.91 µM) | 4 (≈ 6.91 µM) | 2 (≈ 3.46 µM) | > 64 | 2 (≈ 3.46 µM) | 2 (≈ 3.46 µM) | 8 (≈ 13.8 µM) | 2 (≈ 3.46 µM) | 2 | 2 | 2 | 2
Cc1ccc(C(=O)/C=C/c2ccc(/C=C3\SC(=S)N([C@@H](Cc4ccccc4)C(=O)O)C3=O)cc2)cc1 | 8 (≈ 15.6 µM) | 8 (≈ 15.6 µM) | 2 (≈ 3.89 µM) | > 64 | 2 (≈ 3.89 µM) | 2 (≈ 3.89 µM) | 8 (≈ 15.6 µM) | 2 (≈ 3.89 µM) | 2 | 2 | 2 | 2
Cc1ccc(C(=O)/C=C/c2ccc(/C=C3\SC(=S)N([C@@H](Cc4ccccc4)C(=O)O)C3=O)cc2)c(C)c1 | 16 (≈ 30.3 µM) | 16 (≈ 30.3 µM) | 4 (≈ 7.58 µM) | > 64 | 4 (≈ 7.58 µM) | 4 (≈ 7.58 µM) | 8 (≈ 15.2 µM) | 8 (≈ 15.2 µM) | 2 | 2 | 2 | 2
COc1ccccc1C(=O)/C=C/c1ccc(/C=C2\SC(=S)N([C@@H](Cc3ccccc3)C(=O)O)C2=O)cc1 | 16 (≈ 30.2 µM) | 16 (≈ 30.2 µM) | 8 (≈ 15.1 µM) | > 64 | 8 (≈ 15.1 µM) | 8 (≈ 15.1 µM) | 4 (≈ 7.55 µM) | 16 (≈ 30.2 µM) | 2 | 2 | 2 | 2
COc1cccc(C(=O)/C=C/c2ccc(/C=C3\SC(=S)N([C@@H](Cc4ccccc4)C(=O)O)C3=O)cc2)c1 | 16 (≈ 30.2 µM) | 16 (≈ 30.2 µM) | 4 (≈ 7.55 µM) | > 64 | 8 (≈ 15.1 µM) | 8 (≈ 15.1 µM) | 8 (≈ 15.1 µM) | 8 (≈ 15.1 µM) | 2 | 2 | 2 | 2
COc1ccc(C(=O)/C=C/c2ccc(/C=C3\SC(=S)N([C@@H](Cc4ccccc4)C(=O)O)C3=O)cc2)cc1 | 16 (≈ 30.2 µM) | 16 (≈ 30.2 µM) | 4 (≈ 7.55 µM) | > 64 | 4 (≈ 7.55 µM) | 4 (≈ 7.55 µM) | 4 (≈ 7.55 µM) | 4 (≈ 7.55 µM) | 2 | 2 | 2 | 2
CC(=O)Nc1ccc(C(=O)/C=C/c2ccc(/C=C3\SC(=S)N([C@@H](Cc4ccccc4)C(=O)O)C3=O)cc2)cc1 | 16 (≈ 28.7 µM) | 16 (≈ 28.7 µM) | 4 (≈ 7.19 µM) | > 64 | 4 (≈ 7.19 µM) | 2 (≈ 3.59 µM) | 4 (≈ 7.19 µM) | 4 (≈ 7.19 µM) | 2 | 2 | 2 | 2
O=C(/C=C/c1ccc(/C=C2\SC(=S)N([C@@H](Cc3ccccc3)C(=O)O)C2=O)cc1)c1ccccc1 | 16 (≈ 32 µM) | 8 (≈ 16 µM) | 4 (≈ 8.01 µM) | > 64 | 4 (≈ 8.01 µM) | 4 (≈ 8.01 µM) | 8 (≈ 16 µM) | 4 (≈ 8.01 µM) | 2 | 2 | 2 | 2
O=C(O)[C@H](Cc1ccccc1)N1C(=O)/C(=C\c2ccc(OCc3cccc(F)c3)cc2)SC1=S | 16 (≈ 32.4 µM) | 16 (≈ 32.4 µM) | 4 (≈ 8.1 µM) | > 64 | 8 (≈ 16.2 µM) | 8 (≈ 16.2 µM) | 8 (≈ 16.2 µM) | 8 (≈ 16.2 µM) | 2 | 2 | 2 | 2
O=C(O)[C@H](Cc1ccccc1)N1C(=O)/C(=C\c2ccc(OCc3ccc(F)cc3)cc2)SC1=S | 8 (≈ 16.2 µM) | 8 (≈ 16.2 µM) | 4 (≈ 8.1 µM) | > 64 | 8 (≈ 16.2 µM) | 8 (≈ 16.2 µM) | 8 (≈ 16.2 µM) | 8 (≈ 16.2 µM) | 2 | 2 | 2 | 2
O=C(O)[C@H](Cc1ccccc1)N1C(=O)/C(=C\c2ccc(OCc3ccccc3Cl)cc2)SC1=S | 8 (≈ 15.7 µM) | 8 (≈ 15.7 µM) | 4 (≈ 7.84 µM) | > 64 | 4 (≈ 7.84 µM) | 4 (≈ 7.84 µM) | 4 (≈ 7.84 µM) | 4 (≈ 7.84 µM) | 2 | 2 | 2 | 2
O=C(O)[C@H](Cc1ccccc1)N1C(=O)/C(=C\c2ccc(OCc3cccc(Cl)c3)cc2)SC1=S | 8 (≈ 15.7 µM) | 8 (≈ 15.7 µM) | 2 (≈ 3.92 µM) | > 64 | 4 (≈ 7.84 µM) | 4 (≈ 7.84 µM) | 4 (≈ 7.84 µM) | 4 (≈ 7.84 µM) | 2 | 2 | 2 | 2
O=C(O)[C@H](Cc1ccccc1)N1C(=O)/C(=C\c2ccc(OCc3ccc(Cl)cc3)cc2)SC1=S | 8 (≈ 15.7 µM) | 8 (≈ 15.7 µM) | 2 (≈ 3.92 µM) | > 64 | 4 (≈ 7.84 µM) | 4 (≈ 7.84 µM) | 4 (≈ 7.84 µM) | 4 (≈ 7.84 µM) | 2 | 2 | 2 | 2
O=C(O)[C@H](Cc1ccccc1)N1C(=O)/C(=C\c2ccc(OCc3ccc(Cl)cc3Cl)cc2)SC1=S | 8 (≈ 14.7 µM) | 8 (≈ 14.7 µM) | 2 (≈ 3.67 µM) | > 64 | 8 (≈ 14.7 µM) | 16 (≈ 29.4 µM) | 8 (≈ 14.7 µM) | 8 (≈ 14.7 µM) | 2 | 2 | 2 | 2
O=C(O)[C@H](Cc1ccccc1)N1C(=O)/C(=C\c2ccc(OCc3cccc(Br)c3)cc2)SC1=S | 4 (≈ 7.21 µM) | 4 (≈ 7.21 µM) | 2 (≈ 3.61 µM) | > 64 | 4 (≈ 7.21 µM) | 4 (≈ 7.21 µM) | 4 (≈ 7.21 µM) | 8 (≈ 14.4 µM) | 2 | 2 | 2 | 2
O=C(O)[C@H](Cc1ccccc1)N1C(=O)/C(=C\c2ccc(OCc3ccc(Br)cc3)cc2)SC1=S | 8 (≈ 14.4 µM) | 8 (≈ 14.4 µM) | 2 (≈ 3.61 µM) | > 64 | 4 (≈ 7.21 µM) | 8 (≈ 14.4 µM) | 8 (≈ 14.4 µM) | 8 (≈ 14.4 µM) | 2 | 2 | 2 | 2
Cc1ccc(COc2ccc(/C=C3\SC(=S)N([C@@H](Cc4ccccc4)C(=O)O)C3=O)cc2)cc1 | 8 (≈ 16.3 µM) | 16 (≈ 32.7 µM) | 4 (≈ 8.17 µM) | > 64 | 4 (≈ 8.17 µM) | 8 (≈ 16.3 µM) | 8 (≈ 16.3 µM) | 8 (≈ 16.3 µM) | 2 | 2 | 2 | 2
O=C(O)[C@H](Cc1ccccc1)N1C(=O)/C(=C\c2ccc(OCc3ccccc3)cc2)SC1=S | 8 (≈ 16.8 µM) | 8 (≈ 16.8 µM) | 2 (≈ 4.21 µM) | > 64 | 4 (≈ 8.41 µM) | 8 (≈ 16.8 µM) | 4 (≈ 8.41 µM) | 8 (≈ 16.8 µM) | 2 | 2 | 2 | 2
